Test results as given in patent publication US20230242530A1, “8-(AZETIDIN-1-YL)-[1,2,4]TRIAZOLO[1,5-A]PYRIDINYL COMPOUNDS, COMPOSITIONS AND METHODS OF USE THEREOF” (Genentech, Inc., priority 2016, published 2023).

How the values were obtained:
[1] = target: T1, isolated recombinant JAK1 kinase domain (Homo sapiens, UniProt P23458); test: JAK enzyme assay, JAK1 kinase domain (Caliper LabChip); type: biochemical; details: 1.5 nM JAK1, ATP 25 μM, Morrison tight binding model
T1 construct: isolated recombinant JAK1 and JAK2 kinase domain
Protocol: (§1) JAK Enzyme Assays were Carried Out as Follows:
(§2) The activity of the isolated recombinant JAK1 and JAK2 kinase domain was measured by monitoring phosphorylation of a peptide derived from JAK3 (Val-Ala-Leu-Val-Asp-Gly-Tyr-Phe-Arg-Leu-Thr-Thr, fluorescently labeled on the N-terminus with 5-carboxyfluorescein) using the Caliper LabChip® technology (Caliper Life Sciences, Hopkinton, Mass.). […] Reactions were incubated at 22 °C in 384-well polypropylene microtiter plates for 30 minutes and then stopped by addition of 25 μL of an EDTA containing solution (100 mM HEPES buffer (pH 7.2), 0.015% Brij-35, 150 mM EDTA), resulting in a final EDTA concentration of 50 mM. After termination of the kinase reaction, the proportion of phosphorylated product was determined as a fraction of total peptide substrate using the Caliper LabChip® 3000 according to the manufacturer's specifications. Ki values were then determined using the Morrison tight binding model (Morrison, J. F., Biochim. Biophys. Acta. 185:269-296 (1969); William, J. W. and Morrison, J. F., Meth. Enzymol., 63:437-467 (1979)) modified for ATP-competitive inhibition [Ki=Ki,app/(1+[ATP]/Km,app)].

[2] = target: T2, isolated recombinant JAK2 kinase domain (Homo sapiens, UniProt O60674); test: JAK enzyme assay, JAK2 kinase domain (Caliper LabChip); type: biochemical; details: 0.2 nM JAK2, ATP 25 μM, Morrison tight binding model
T2 construct: isolated recombinant JAK1 and JAK2 kinase domain
Protocol: as §1, §2

[3] = tested on: JAK1-dependent STAT6 phosphorylation downstream of IL-13 stimulation in BEAS-2B cells; test: JAK1 pathway assay in cell lines: IL-13 p-STAT6 BEAS-2B; type: cell-based; details: BEAS-2B human bronchial epithelial cells, 1 hr compound, IL-13 15 min, MSD readout
Protocol: JAK1 Pathway Assay in Cell Lines was Carried Out as Follows:
Inhibitor potency (EC50) was determined in cell-based assays designed to measure JAK1 dependent STAT phosphorylation. As noted above, inhibition of IL-4, IL-13, and IL-9 signalling by blocking the Jak/Stat signaling pathway can alleviate asthmatic symptoms in pre-clinical lung inflammation models (Mathew et al., 2001, J Exp Med 193(9): 1087-1096; Kudlacz et. al., 2008, Eur J. Pharmacol 582(1-3): 154-161).
In one assay approach, TF-1 human erythroleukemia cells obtained from the American Type Culture Collection (ATCC; Manassas, Va.) were used to measure JAK1-dependent STAT6 phosphorylation downstream of IL-13 stimulation. Prior to use in the assays, TF-1 cells were starved of GM-CSF overnight in OptiMEM medium (Life Technologies, Grand Island, N.Y.) supplemented with 0.5% charcoal/dextran stripped fetal bovine serum (FBS), 0.1 mM non-essential amino acids (NEAA), and 1 mM sodium pyruvate. The assays were run in 384-well plates in serum-free OptiMEM medium using 300,000 cells per well. In a second assay approach, BEAS-2B human bronchial epithelial cells obtained from ATCC were plated at 100,000 cells per well of a 96-well plate one day prior to the experiment. The BEAS-2B assay was run in complete growth medium (bronchial epithelial basal medium plus bulletkit; Lonza; Basel, Switzerland).
Test compounds were serially diluted 1:2 in DMSO and then diluted 1:50 in medium just before use. Diluted compounds were added to the cells, for a final DMSO concentration of 0.2%, and incubated for 30 mi (for the TF-1 assay) or 1 hr (for the BEAS-2B assay) at 37 QC. Then, cells were stimulated with human recombinant cytokine at their respective EC90 concentrations, as previously determined for each individual lot. Cells were stimulated with IL-13 (R&D Systems, Minneapolis, Minn.) for 15 min at 37 °C. The TF-1 cell reactions were stopped by the direct addition of 10× lysis buffer (Cell Signaling Technologies, Danvers, Mass.), whereas the BEAS-2B cell incubations were halted by the removal of medium and addition of 1× lysis buffer. The resultant samples were frozen in the plates at −80 °C. Compound mediated inhibition of STAT6 phosphorylation was measured in the cell lysates using MesoScale Discovery (MSD) technology (Gaithersburg, Md.). EC50 values were determined as the concentration of compound required for 50% inhibition of STAT phosphorylation relative to that measured for the DMSO control.

T2 sequence (O60674 849-1124 limits assumed): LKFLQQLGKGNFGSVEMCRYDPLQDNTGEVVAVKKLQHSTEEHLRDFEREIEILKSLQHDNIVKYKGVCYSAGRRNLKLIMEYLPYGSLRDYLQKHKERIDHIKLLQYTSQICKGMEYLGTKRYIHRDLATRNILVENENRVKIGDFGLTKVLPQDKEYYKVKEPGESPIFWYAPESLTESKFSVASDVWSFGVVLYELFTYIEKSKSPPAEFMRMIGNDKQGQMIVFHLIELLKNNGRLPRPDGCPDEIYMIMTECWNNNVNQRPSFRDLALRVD
T1 sequence (P23458 875-1153 limits assumed): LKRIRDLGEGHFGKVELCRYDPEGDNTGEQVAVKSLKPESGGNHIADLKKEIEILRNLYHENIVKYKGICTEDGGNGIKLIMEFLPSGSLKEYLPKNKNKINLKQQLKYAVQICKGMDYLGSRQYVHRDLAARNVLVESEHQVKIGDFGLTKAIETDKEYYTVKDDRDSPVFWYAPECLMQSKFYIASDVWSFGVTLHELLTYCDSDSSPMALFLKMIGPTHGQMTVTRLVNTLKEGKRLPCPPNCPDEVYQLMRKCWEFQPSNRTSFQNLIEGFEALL

Row | Ki [1] | Ki [2] | Structure (SMILES) | EC50 [3]
1 | 0.3 nM | 0.2 nM | CCc1cnn(C2(CC#N)CN(c3cccn4nc(Nc5cnn(CC(=O)N6CCC(NCC(C)(C)C#N)CC6)c5)nc34)C2)c1 [Example 33, 3-[[1-[2-[4-[[8-[3-(cyanomethyl)-3-(4-ethylpyrazol-1-yl)azetidin-1-yl]-[1,2,4]triazolo[1,5-a]pyridin-2-yl]amino]pyrazol-1-yl]acetyl]-4-piperidyl]amino]-2,2-dimethyl-propanenitrile] | 18 nM
2 | 0.2 nM | 0.2 nM | N#CCC1(c2cccc(Cl)c2)CN(c2cccn3nc(Nc4cnn(CC(=O)N5CCN(CCN6CCOCC6)CC5)c4)nc23)C1 [Example 82, 2-[3-(3-chlorophenyl)-1-[2-[[1-[2-[4-(2-morpholinoethyl)piperazin-1-yl]-2-oxo-ethyl]pyrazol-4-yl]amino]-[1,2,4]triazolo[1,5-a]pyridin-8-yl]azetidin-3-yl]acetonitrile] | 22 nM
3 | 0.3 nM | 0.5 nM | Cn1cc(Nc2nc3c(N4CC(CC#N)(n5cc(C(F)(F)F)cn5)C4)cccn3n2)cn1 [Example 135, 2-[1-[2-[(l-methylpyrazol-4-yl)amino]-[1,2,4]triazolo[1,5-a]pyridin-8-yl]-3-[4-(trifluoromethyl)pyrazol-1-yl]azetidin-3-yl]acetonitrile] | 10 nM
4 | 0.5 nM | 1.8 nM | Cc1cc(C2(CC#N)CN(c3cccn4nc(Nc5cnn(CC(=O)N6CCN(C)CC6)c5)nc34)C2)ccc1Cl [Example 27, 2-[3-(4-chloro-3-methyl-phenyl)-1-[2-[[1-[2-(4-methylpiperazin-1-yl)-2-oxo-ethyl]pyrazol-4-yl]amino]-[1,2,4]triazolo[1,5-a]pyridin-8-yl]azetidin-3-yl]acetonitrile] | 51 nM
5 | 0.4 nM | 0.2 nM | CCc1cnn(C2(CC#N)CN(c3cccn4nc(Nc5cnn(CC(=O)N6CCN(C7COC7)CC6)c5)nc34)C2)c1 [Example 32, 2-[3-(4-ethylpyrazol-1-yl)-1-[2-[[1-[2-[4-(oxetan-3-yl)piperazin-1-yl]-2-oxo-ethyl]pyrazol-4-yl]amino]-[1,2,4]triazolo[1,5-a]pyridin-8-yl]azetidin-3-yl]acetonitrile;formic acid] | 19 nM
6 | 0.6 nM | 0.6 nM | N#CCC1(c2cccc(Cl)c2)CN(c2cccn3nc(Nc4cnn(CC(=O)N5CCC(N6CCOCC6)CC5)c4)nc23)C1 [Example 72, 2-[3-(3-chlorophenyl)-1-[2-[[1-[2-(4-morpholino-1-piperidyl)-2-oxo-ethyl]pyrazol-4-yl]amino]-[1,2,4]triazolo[1,5-a]pyridin-8-yl]azetidin-3-yl]acetonitrile] | 24 nM
7 | 0.5 nM | 4.4 nM | N#CCC1(n2cc(C(F)(F)F)cn2)CN(c2cccn3nc(Nc4ccc5c(c4)CCN(C4COC4)C5)nc23)C1 [Example 121, 2-[1-[2-[[2-(oxetan-3-yl)-3,4-dihydro-1H-isoquinolin-6-yl]amino]-[1,2,4]triazolo[1,5-a]pyridin-8-yl]-3-[4-(trifluoromethyl)pyrazol-1-yl]azetidin-3-yl]acetonitrile] | 31 nM
8 | 0.4 nM | 1.7 nM | CCc1cnn(C2(CC#N)CN(c3cccn4nc(Nc5ccc(C(=O)N6CCN(C)CC6)c(C)c5)nc34)C2)c1 [Example 92, 2-[3-(4-ethylpyrazol-1-yl)-1-[2-[3-methyl-4-(4-methylpiperazine-1-carbonyl)anilino]-[1,2,4]triazolo[1,5-a]pyridin-8-yl]azetidin-3-yl]acetonitrile] | 19 nM
9 | 1 nM | 4.6 nM | N#CCC1(n2cc(C(F)(F)F)cn2)CN(c2cccn3nc(Nc4cccc(C(=O)N5CCC(N6CCOCC6)CC5)c4)nc23)C1 [Example 112, formic acid;2-[1-[2-[3-(4-morpholinopiperidine-1-carbonyl)anilino]-[1,2,4]triazolo[1,5-a]pyridin-8-yl]-3-[4-(trifluoromethyl)pyrazol-1-yl]azetidin-3-yl]acetonitrile] | 69 nM
10 | 0.2 nM | 0.2 nM | CN1CCN(C(=O)Cn2cc(Nc3nc4c(N5CC(CC#N)(n6cc(CCc7ccccc7)cn6)C5)cccn4n3)cn2)CC1 [Example 59, 2-[1-[2-[[1-[2-(4-methylpiperazin-1-yl)-2-oxo-ethyl]pyrazol-4-yl]amino]-[1,2,4]triazolo[1,5-a]pyridin-8-yl]-3-[4-(2-phenylethyl)pyrazol-1-yl]azetidin-3-yl]acetonitrile] | 8 nM
11 | 0.4 nM | 0.4 nM | CCc1cnn(C2(CC#N)CN(c3cccn4nc(Nc5ccc6c(c5)CCN([C@H]5CCOC5)C6)nc34)C2)c1 (stereo in doubt) [Example 62, 2-[3-(4-ethylpyrazol-1-yl)-1-[2-[[2-[rac-(3S)-tetrahydrofuran-3-yl]-3,4-dihydro-1H-isoquinolin-6-yl]amino]-[1,2,4]triazolo[1,5-a]pyridin-8-yl]azetidin-3-yl]acetonitrile] | 49 nM
12 | 0.1 nM | 0.4 nM | CCc1cnn(C2(CC#N)CN(c3cccn4nc(Nc5cnn(CC(F)F)c5)nc34)C2)c1 [Example 148, 2-[1-[2-[[1-(2,2-difluoroethyl)pyrazol-4-yl]amino]-[1,2,4]triazolo[1,5-a]pyridin-8-yl]-3-(4-ethylpyrazol-1-yl)azetidin-3-yl]acetonitrile] | 8 nM
13 | 0.3 nM | 0.5 nM | CCc1cnn(C2(CC#N)CN(c3cccn4nc(Nc5cnn(CC(=O)N6CCN(CCCC#N)CC6)c5)nc34)C2)c1 [Example 68, 4-[4-[2-[4-[[8-[3-(cyanomethyl)-3-(4-ethylpyrazol-1-yl)azetidin-1-yl]-[1,2,4]triazolo[1,5-a]pyridin-2-yl]amino]pyrazol-1-yl]acetyl]piperazin-1-yl]butanenitrile] | 14 nM
14 | 0.2 nM | 0.6 nM | CN1CCN(C(=O)Cn2cc(Nc3nc4c(N5CC(CC#N)(n6cc(-c7ccccc7F)cn6)C5)cccn4n3)cn2)CC1 [Example 77, 2-[3-[4-(2-fluorophenyl)pyrazol-1-yl]-1-[2-[[1-[2-(4-methylpiperazin-1-yl)-2-oxo-ethyl]pyrazol-4-yl]amino]-[1,2,4]triazolo[1,5-a]pyridin-8-yl]azetidin-3-yl]acetonitrile] | 17 nM
15 | 0.5 nM | 0.8 nM | CCN1CCN(C(=O)Cn2cc(Nc3nc4c(N5CC(CC#N)(c6cccc(SC)c6)C5)cccn4n3)cn2)CC1 [Example 80] | 51 nM
16 | 0.4 nM | 1 nM | CCc1cnn(C2(CC#N)CN(c3cccn4nc(Nc5ccc(C(=O)N(C)CC6CCN(C7COC7)CC6)cc5)nc34)C2)c1 [Example 88, 4-[[8-[3-(cyanomethyl)-3-(4-ethylpyrazol-1-yl)azetidin-1-yl]-[1,2,4]triazolo[1,5-a]pyridin-2-yl]amino]-N-methyl-N-[[1-(oxetan-3-yl)-4-piperidyl]methyl]benzamide] | 35 nM
17 | 0.3 nM | 0.5 nM | Cn1cc(Nc2nc3c(N4CC(CC#N)(n5cc(Br)cn5)C4)cccn3n2)cn1 [Example 132, 2-[3-(4-bromopyrazol-1-yl)-1-[2-[(l-methylpyrazol-4-yl)amino]-[1,2,4]triazolo[1,5-a]pyridin-8-yl]azetidin-3-yl]acetonitrile] | 51 nM
